Laboratory results as given in PubChem BioAssay AID1963965 (Molecular Pharmacology Branch, DTP, NCI, 2024).

System: 996289-038-R-J1-PDC spheroid viability
Test: Anticancer human tumor 996289-038-R-J1-PDC patient-derived colon adenocarcinoma cell line growth inhibition [PI3K]
Details: spheroids with HUVEC and MSC; for IC50: curve of first compound; for viability, T/C: stronger effect = lower value
How it was run: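 Spheroid viability read-out. Co-cultures contained the tumor line plus HUVEC and human MSCs. Each agent was paired with a PI3K inhibitor (inavolisib, alpelisib, duvelisib, copanlisib) across half-log dilutions starting at clinical Cmax, or at 10 microM when Cmax was unknown.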

[1] = second compound 0.0316 µM, first compound 0.0316 µM
[2] = second compound 0.0316 µM, first compound 0.1 µM
[3] = second compound 0.1 µM, first compound 0.0316 µM
[4] = second compound 0.1 µM, first compound 0.1 µM
[5] = second compound 0.316 µM, first compound 0.0316 µM
[6] = second compound 0.316 µM, first compound 0.1 µM
[7] = second compound 1 µM, first compound 0.0316 µM
[8] = second compound 1 µM, first compound 0.1 µM
[9] = second compound 3.16 µM, first compound 0.0316 µM
[10] = second compound 3.16 µM, first compound 0.1 µM
[11] = second compound 10 µM, first compound 0.0316 µM
[12] = second compound 10 µM, first compound 0.1 µM
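Further: spheroids exposed to compounds for seven days before viability read.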
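Wherever viability, T/C is given: luminescence used as a proxy for viable cell amount; percent viability relative to DMSO vehicle control as 100%.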

`CC(C)n1nc(-c2ccc3oc(N)nc3c2)c2c(N)ncnc21` + CC(Nc1ncnc2nc[nH]c12)c1cc2cccc(Cl)c2c(=O)n1-c1ccccc1 showed an IC50 (second compound 0.0316 µM) of 80.1 nM, an IC50 (second compound 0.1 µM) of 62 nM and an IC50 (second compound 0.316 µM) of 64.9 nM. It also gave an IC50 (second compound 1 µM) of 58 nM, an IC50 (second compound 3.16 µM) of 71.7 nM and an IC50 (second compound 10 µM) of 62.9 nM. The viability, T/C (second compound 0.0316 µM, first compound 0.000316 µM) was 107%, the viability, T/C (second compound 0.0316 µM, first compound 0.001 µM) was 88.6% and the viability, T/C (second compound 0.0316 µM, first compound 0.00316 µM) was 97.6%. It also gave a viability, T/C (second compound 0.0316 µM, first compound 0.01 µM) of 86.7%, a viability, T/C [1] of 82.7% and a viability, T/C [2] of 42.3%. For the same compound, the viability, T/C (second compound 0.1 µM, first compound 0.000316 µM) was 124%, the viability, T/C (second compound 0.1 µM, first compound 0.001 µM) was 96.5% and the viability, T/C (second compound 0.1 µM, first compound 0.00316 µM) was 96.1%. It also gave a viability, T/C (second compound 0.1 µM, first compound 0.01 µM) of 95.8%, a viability, T/C [3] of 70.8% and a viability, T/C [4] of 34.5%. For the same compound, the viability, T/C (second compound 0.316 µM, first compound 0.000316 µM) was 105%, the viability, T/C (second compound 0.316 µM, first compound 0.001 µM) was 87.4% and the viability, T/C (second compound 0.316 µM, first compound 0.00316 µM) was 84.6%. The viability, T/C (second compound 0.316 µM, first compound 0.01 µM) was 87.3%, the viability, T/C [5] was 73.9% and the viability, T/C [6] was 36.2%. The viability, T/C (second compound 1 µM, first compound 0.000316 µM) was 98.4%, the viability, T/C (second compound 1 µM, first compound 0.001 µM) was 97.9% and the viability, T/C (second compound 1 µM, first compound 0.00316 µM) was 85.9%. It also gave a viability, T/C (second compound 1 µM, first compound 0.01 µM) of 84.6%, a viability, T/C [7] of 65.7% and a viability, T/C [8] of 35.9%. The viability, T/C (second compound 3.16 µM, first compound 0.000316 µM) was 87.5%, the viability, T/C (second compound 3.16 µM, first compound 0.001 µM) was 87.5% and the viability, T/C (second compound 3.16 µM, first compound 0.00316 µM) was 86.2%. For the same compound, the viability, T/C (second compound 3.16 µM, first compound 0.01 µM) was 89.5%, the viability, T/C [9] was 76.8% and the viability, T/C [10] was 38.9%. It also gave a viability, T/C (second compound 10 µM, first compound 0.000316 µM) of 85%, a viability, T/C (second compound 10 µM, first compound 0.001 µM) of 82% and a viability, T/C (second compound 10 µM, first compound 0.00316 µM) of 82.9%. It also gave a viability, T/C (second compound 10 µM, first compound 0.01 µM) of 79%, a viability, T/C [11] of 68.8% and a viability, T/C [12] of 37.2%.

For `CC1(C)CCC(CN2CCN(c3ccc(C(=O)NS(=O)(=O)c4ccc(NCC5CCOCC5)c([N+](=O)[O-])c4)c(Oc4cnc5[nH]ccc5c4)c3)CC2)=C(c2ccc(Cl)cc2)C1` + CC(Nc1ncnc2nc[nH]c12)c1cc2cccc(Cl)c2c(=O)n1-c1ccccc1, the IC50 (second compound 0.0316 µM) was > 10000 nM, the IC50 (second compound 0.1 µM) was > 10000 nM and the IC50 (second compound 0.316 µM) was > 10000 nM. The IC50 (second compound 1 µM) was > 10000 nM, the IC50 (second compound 3.16 µM) was 9570 nM and the IC50 (second compound 10 µM) was > 10000 nM. It also gave a viability, T/C [1] of 105%, a viability, T/C [2] of 86.3% and a viability, T/C (second compound 0.0316 µM, first compound 0.316 µM) of 106%. It also gave a viability, T/C (second compound 0.0316 µM, first compound 1 µM) of 103%, a viability, T/C (second compound 0.0316 µM, first compound 3.16 µM) of 114% and a viability, T/C (second compound 0.0316 µM, first compound 10 µM) of 65%. It also gave a viability, T/C [3] of 108%, a viability, T/C [4] of 96.9% and a viability, T/C (second compound 0.1 µM, first compound 0.316 µM) of 99.4%. The viability, T/C (second compound 0.1 µM, first compound 1 µM) was 119%, the viability, T/C (second compound 0.1 µM, first compound 3.16 µM) was 128% and the viability, T/C (second compound 0.1 µM, first compound 10 µM) was 67%. The viability, T/C [5] was 111%, the viability, T/C [6] was 96.3% and the viability, T/C (second compound 0.316 µM, first compound 0.316 µM) was 104%. It also gave a viability, T/C (second compound 0.316 µM, first compound 1 µM) of 101%, a viability, T/C (second compound 0.316 µM, first compound 3.16 µM) of 112% and a viability, T/C (second compound 0.316 µM, first compound 10 µM) of 60.9%. It also gave a viability, T/C [7] of 102%, a viability, T/C [8] of 88.7% and a viability, T/C (second compound 1 µM, first compound 0.316 µM) of 103%. The viability, T/C (second compound 1 µM, first compound 1 µM) was 114%, the viability, T/C (second compound 1 µM, first compound 3.16 µM) was 124% and the viability, T/C (second compound 1 µM, first compound 10 µM) was 63.1%. It also gave a viability, T/C [9] of 109%, a viability, T/C [10] of 92.3% and a viability, T/C (second compound 3.16 µM, first compound 0.316 µM) of 102%. It also gave a viability, T/C (second compound 3.16 µM, first compound 1 µM) of 107%, a viability, T/C (second compound 3.16 µM, first compound 3.16 µM) of 112% and a viability, T/C (second compound 3.16 µM, first compound 10 µM) of 47.7%. The viability, T/C [11] was 88.4%, the viability, T/C [12] was 88.9% and the viability, T/C (second compound 10 µM, first compound 0.316 µM) was 85.7%. For the same compound, the viability, T/C (second compound 10 µM, first compound 1 µM) was 102%, the viability, T/C (second compound 10 µM, first compound 3.16 µM) was 108% and the viability, T/C (second compound 10 µM, first compound 10 µM) was 54.6%.
